# Paper PMC9395488, “First-in-human study of IM156, a novel potent biguanide oxidative phosphorylation (OXPHOS) inhibitor, in patients with advanced solid tumors” (Investigational New Drugs, 2022)
# Entries after “also recorded” stand apart in the source; their conditions may differ. Where two headings read alike, the source gives them in different places.
# Experiments:
# [1] = Urine pharmacokinetics of IM156 in patients; type: in vivo, human; settings: for % Dose Recovered / CLr / Total Amount Excreted (Ae): urine
# [2] = tested on: advanced solid tumors; assay: Preliminary efficacy (RECIST 1.1 / RANO response, PFS); type: in vivo, human
# Description: A preliminary evaluation of efficacy was based on serial CT or magnetic resonance imaging (MRI). Response criteria were as defined by RECIST 1.1 or RANO. The following endpoints were to be assessed: overall response rate (ORR: complete response [CR] plus partial response [PR]), disease control rate (DCR: CR + PR + stable disease [SD]), DoR, and PFS.
# The safety population was defined as all patients who received at least one dose of IM156. The PK population was not defined in the protocol but included all patients with sufficient PK data to perform adequate PK modeling. The efficacy population included all patients who underwent at least one tumor imaging assessment while receiving IM156. Safety was assessed using descriptive statistics (e.g., DLTs, AEs, laboratory tests, physical examination, 12-lead ECG). The incidence and number of events were reported for the DLTs observed in Cycle 1 per dose group. […] Two-sided 95% Confidence Intervals (CIs) were also provided. Adverse events and TRAEs were standardized with the System Organ Class and the Preferred Term using the Medical Dictionary for Regulatory Activities v23.0. In addition, TEAEs, serious adverse events (SAEs), TEAE severity, and TEAEs leading to withdrawal were presented by dose group. Efficacy data were to be presented by Waterfall and Swim Lane plots. Time to event endpoints (e.g., DoR, PFS) were determined using Kaplan–Meier estimations with the median value for each endpoint summarized.
# [3] = tested on: A549; set-up: method as in ImmunoMet, 2018; settings: in A549; ref ImmunoMet, 2018; read-out: OXPHOS inhibition IC50; cited from earlier work
# [4] = tested on: purified complex I membrane from bovine heart; set-up: method as in ImmunoMet, 2018; settings: ref ImmunoMet, 2018, read-out: mitochondrial OXPHOS inhibition IC50; cited from earlier work
# [5] = tested on: Hs746T GC xenograft; set-up: method as in ImmunoMet, 2018; settings: Hs746T GC xenograft in mice, each compound alone; IM156 10 or 30 mg/kg, Irinotecan 50 or 75 mg/kg; ref ImmunoMet, 2018; cited from earlier work
# [6] = tested on: miR-17~92 overexpression Eµ-MYC lymphoma; set-up: method as in ImmunoMet, 2018; settings: nude mice, IM156 in drinking water 0.8 mg/mL, vs control line or regular drinking water; ref ImmunoMet, 2018; cited from earlier work
# [7] = tested on: glioblastoma (GSC11); set-up: method as in ImmunoMet, 2018; settings: glioblastoma animal model, control group 47 days; ref ImmunoMet, 2018; cited from earlier work
# [8] = tested on: GC lines including MKN-74; set-up: method as in ImmunoMet, 2018; settings: Eleven GC lines including MKN-74; ref ImmunoMet, 2018; cited from earlier work
# [9] = tested on: OXPHOS; set-up: method as in ImmunoMet, 2018; settings: at the highest concentrations; ref ImmunoMet, 2018; cited from earlier work
# [10] = tested on: beagle dogs; settings: ref ImmunoMet, 2018, cited from earlier work
# [11] = beagle dogs, ref ImmunoMet, 2018, cited from earlier work
# [12] = tested on: rodent bone marrow; settings: ref ImmunoMet, 2018; cited from earlier work
# [13] = Day 27, cohort 1, 100 mg QOD, n<3
# [14] = Day 27, cohort 7, 1200 mg QD, n<3
structure (smiles),measurement,setting,value
NC(=Nc1ccc(OC(F)(F)F)cc1)N=C(N)N1CCCC1 [IM156],IM156 excreted in the urine,"[1]; Day 1, 200—1200 mg QOD, approximately",8–10%
same,% Dose Recovered,"[1]; Day 1, cohort 1, 100 mg QOD",1.79 ± 0.620%
same,CLr,"[1]; Day 1, cohort 1, 100 mg QOD",6.16 ± 5.25 L/h
same,Total Amount Excreted (Ae),"[1]; Day 1, cohort 1, 100 mg QOD",1790 ± 620 µg
same,% Dose Recovered,"[1]; Day 1, cohort 2, 200 mg QOD",10.0 ± 1.57%
same,CLr,"[1]; Day 1, cohort 2, 200 mg QOD",6.69 ± 0.709 L/h
same,Total Amount Excreted (Ae),"[1]; Day 1, cohort 2, 200 mg QOD",20000 ± 3150 µg
same,% Dose Recovered,"[1]; Day 1, cohort 3, 400 mg QOD",7.90 ± 2.90%
same,CLr,"[1]; Day 1, cohort 3, 400 mg QOD",9.41 ± 6.80 L/h
same,Total Amount Excreted (Ae),"[1]; Day 1, cohort 3, 400 mg QOD",31600 ± 11600 µg
same,% Dose Recovered,"[1]; Day 1, cohort 4, 800 mg QOD",7.86 ± 4.25%
same,CLr,"[1]; Day 1, cohort 4, 800 mg QOD",10.4 ± 6.93 L/h
same,Total Amount Excreted (Ae),"[1]; Day 1, cohort 4, 800 mg QOD",62900 ± 34000 µg
same,% Dose Recovered,"[1]; Day 1, cohort 5, 1200 mg QOD",9.11 ± 12.9%
same,CLr,"[1]; Day 1, cohort 5, 1200 mg QOD",7.89 ± 9.01 L/h
same,Total Amount Excreted (Ae),"[1]; Day 1, cohort 5, 1200 mg QOD",109000 ± 155000 µg
same,% Dose Recovered,"[1]; Day 1, cohort 6, 800 mg QD",7.96 ± 5.94%
same,CLr,"[1]; Day 1, cohort 6, 800 mg QD",7.92 ± 2.62 L/h
same,Total Amount Excreted (Ae),"[1]; Day 1, cohort 6, 800 mg QD",63700 ± 47500 µg
same,% Dose Recovered,"[1]; Day 1, cohort 7, 1200 mg QD",8.79 ± 2.05%
same,CLr,"[1]; Day 1, cohort 7, 1200 mg QD",7.60 ± 4.02 L/h
same,Total Amount Excreted (Ae),"[1]; Day 1, cohort 7, 1200 mg QD",105000 ± 24600 µg
same,% Dose Recovered,[1]; [13],4.32%
same,CLr,[1]; [13],4.46 L/h
same,Total Amount Excreted (Ae),[1]; [13],4320 µg
same,% Dose Recovered,"[1]; Day 27, cohort 2, 200 mg QOD",13.9 ± 2.34%
same,CLr,"[1]; Day 27, cohort 2, 200 mg QOD",6.83 ± 1.58 L/h
same,Total Amount Excreted (Ae),"[1]; Day 27, cohort 2, 200 mg QOD",27700 ± 4680 µg
same,% Dose Recovered,"[1]; Day 27, cohort 3, 400 mg QOD",16.2 ± 11.4%
same,CLr,"[1]; Day 27, cohort 3, 400 mg QOD",8.68 ± 1.52 L/h
same,Total Amount Excreted (Ae),"[1]; Day 27, cohort 3, 400 mg QOD",64700 ± 45600 µg
same,% Dose Recovered,"[1]; Day 27, cohort 4, 800 mg QOD",16.2 ± 9.80%
same,CLr,"[1]; Day 27, cohort 4, 800 mg QOD",11.2 ± 6.94 L/h
same,Total Amount Excreted (Ae),"[1]; Day 27, cohort 4, 800 mg QOD",129000 ± 78400 µg
same,% Dose Recovered,"[1]; Day 27, cohort 5, 1200 mg QOD",18.7 ± 10.6%
same,CLr,"[1]; Day 27, cohort 5, 1200 mg QOD",10.9 ± 7.79 L/h
same,Total Amount Excreted (Ae),"[1]; Day 27, cohort 5, 1200 mg QOD",225000 ± 128000 µg
same,% Dose Recovered,"[1]; Day 27, cohort 6, 800 mg QD",34.8 ± 6.56%
same,CLr,"[1]; Day 27, cohort 6, 800 mg QD",8.72 ± 3.01 L/h
same,Total Amount Excreted (Ae),"[1]; Day 27, cohort 6, 800 mg QD",279000 ± 52500 µg
same,% Dose Recovered,[1]; [14],21.0%
same,CLr,[1]; [14],7.16 L/h
same,Total Amount Excreted (Ae),[1]; [14],252000 µg
same,% Dose Recovered,"[1]; Fed 1, cohort 7, 1200 mg",5.42 ± 3.51%
same,CLr,"[1]; Fed 1, cohort 7, 1200 mg",5.16 ± 3.51 L/h
same,Total Amount Excreted (Ae),"[1]; Fed 1, cohort 7, 1200 mg",65100 ± 42100 µg
same,duration of prolonged SD / time on IM156,[2]; 1 patient with gastric adenocarcinoma,169 days
same,duration of prolonged SD / time on IM156,[2]; 1 patient with gastric neuroendocrine carcinoma,444 days
same,objective responses (CRs or PRs),[2]; 16 of 22 patients with response data,No objective responses; also recorded: No clinical responses
same,median PFS,[2]; Kaplan–Meier,54 days
same,"median PFS, 95% CI",[2]; Kaplan–Meier,47 to 71 days
same,disease control rate (DCR),[2]; N = 22,32%
same,patients with confirmed SD,[2]; N = 22,2 patients
same,"patients with confirmed SD, percent",[2]; N = 22,9%
same,patients with stable disease (SD) as best response,[2]; N = 22,7 patients
same,"patients with stable disease (SD) as best response, percent",[2]; N = 22,32%
same,IC50,[3],9 µM
same,IC50,[4],2 µM
same,reduction of tumor volume,[5],~ 70%
same,extension of overall animal survival,[6],approximately 50%
same,median survival time,[7],82 days
same,sensitivity of GC lines to single agent,[8],significant sensitivity
same,time to show OXPHOS inhibition,[9],≤ 20 min
same,tolerability,"[10]; beagle dogs, 20, 40, or 80 mg/kg/dose QOD oral gavage, 27 days",tolerated and did not result in morbidity/mortality
same,highest non-severely toxic dose (HNSTD),"[10]; beagle dogs, oral QOD over 27 days (14 doses), highest dose tested",≥ 80 mg/kg
same,accumulation over 27 days,[11]; 20 mg/kg/dose QOD,no apparent accumulation
same,accumulation over 27 days,[11]; 40 and 80 mg/kg/dose QOD,accumulation
same,genotoxicity in in vivo micronucleus test,[12],not genotoxic
